Data set [1] has as its target T1, 5-HT1A receptor (Homo sapiens, UniProt P08908).
T1 construct: host or cells: cell membranes from cultured cells
T1 sequence (P08908 1-422): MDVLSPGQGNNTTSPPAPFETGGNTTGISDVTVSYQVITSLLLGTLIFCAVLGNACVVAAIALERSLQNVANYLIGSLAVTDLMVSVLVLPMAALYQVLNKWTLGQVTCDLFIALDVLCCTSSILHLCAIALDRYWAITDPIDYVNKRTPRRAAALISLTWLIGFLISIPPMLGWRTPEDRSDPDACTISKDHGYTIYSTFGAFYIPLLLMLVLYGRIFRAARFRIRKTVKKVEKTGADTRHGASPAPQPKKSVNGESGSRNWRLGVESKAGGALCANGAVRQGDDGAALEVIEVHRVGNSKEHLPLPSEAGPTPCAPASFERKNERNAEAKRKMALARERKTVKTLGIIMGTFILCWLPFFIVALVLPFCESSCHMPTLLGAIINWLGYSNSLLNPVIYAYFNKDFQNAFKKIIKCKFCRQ
Put plainly: Radioligand binding assay, 5-HT1A receptor. The conditions noted are these: mean ± SD, triplicate at 7 concentrations, Cheng-Prusoff; read-out: Affinity Ki 5-HT1AR. On the procedure: (§1) The affinity of the studied compounds to 5-HT1A, 5-HT2A, 5-HT6, 5-HT7, and D2 receptors was evaluated by a radioligand assay, as reported previously (Table 1). Each compound was tested in triplicate at seven concentrations (from 0.1 nM to 100 µM). Inhibition constants (Ki) were calculated from the Cheng–Prusoff equation [23].
(§2) The cell culture, cell membranes, and radioligand binding assays were performed in accordance with standard protocols.

In data set [2] the target is T2, 5-HT2A receptor (Homo sapiens, UniProt P28223).
T2 construct: host or cells: cell membranes from cultured cells
T2 sequence (P28223 whole entry): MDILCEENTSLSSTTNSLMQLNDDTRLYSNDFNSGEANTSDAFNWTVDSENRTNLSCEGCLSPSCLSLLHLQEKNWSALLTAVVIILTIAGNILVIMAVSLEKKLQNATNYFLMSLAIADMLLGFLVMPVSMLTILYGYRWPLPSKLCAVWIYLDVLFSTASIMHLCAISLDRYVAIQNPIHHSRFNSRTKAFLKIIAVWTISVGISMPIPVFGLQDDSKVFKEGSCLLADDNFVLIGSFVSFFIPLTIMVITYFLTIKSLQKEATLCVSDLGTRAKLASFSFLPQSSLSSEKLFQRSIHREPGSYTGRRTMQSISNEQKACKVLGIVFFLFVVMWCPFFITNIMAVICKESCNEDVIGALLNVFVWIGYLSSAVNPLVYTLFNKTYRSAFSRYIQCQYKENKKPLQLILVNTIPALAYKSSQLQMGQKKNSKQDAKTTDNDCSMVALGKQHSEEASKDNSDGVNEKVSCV
Put plainly: Radioligand binding assay, 5-HT2A receptor. The conditions noted are these: mean ± SD, triplicate at 7 concentrations, Cheng-Prusoff; read-out: Affinity Ki 5-HT2AR. On the procedure:
as §1, §2

Data set [3] concerns the target T3, 5-HT7 receptor (Homo sapiens, UniProt P34969).
T3 construct: host or cells: cell membranes from cultured cells
Put plainly: Radioligand binding assay, 5-HT7 receptor. The conditions noted are these: for activity with respect to 5-HT7R (in words): SAR discussion of radioligand data; for Ki: mean ± SD, triplicate at 7 concentrations, Cheng-Prusoff, read-out: Affinity Ki 5-HT7R. On the procedure: as §1, §2

In data set [4] the target is T4, 5-HT6 receptor (Homo sapiens, UniProt P50406).
T4 construct: host or cells: cell membranes from cultured cells
T4 sequence (P50406 whole entry): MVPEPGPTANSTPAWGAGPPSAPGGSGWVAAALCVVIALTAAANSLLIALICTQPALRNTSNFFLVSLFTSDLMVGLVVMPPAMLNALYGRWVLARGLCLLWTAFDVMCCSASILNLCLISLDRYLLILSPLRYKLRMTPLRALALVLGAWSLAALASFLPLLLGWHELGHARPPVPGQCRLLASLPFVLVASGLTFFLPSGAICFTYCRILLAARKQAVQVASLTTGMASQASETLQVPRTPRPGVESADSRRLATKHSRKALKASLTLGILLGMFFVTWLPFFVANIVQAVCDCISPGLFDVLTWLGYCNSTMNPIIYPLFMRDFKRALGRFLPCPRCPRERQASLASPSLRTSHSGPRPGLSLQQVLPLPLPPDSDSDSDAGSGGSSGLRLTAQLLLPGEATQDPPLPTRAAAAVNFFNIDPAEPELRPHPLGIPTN
Put plainly: Radioligand binding assay, 5-HT6 receptor. The note with it: mean ± SD, triplicate at 7 concentrations, Cheng-Prusoff; read-out: Affinity Ki 5-HT6R. On the procedure:
as §1, §2

Data set [5] addresses T5, D2 receptor (Homo sapiens, UniProt P14416).
T5 construct: host or cells: cell membranes from cultured cells
Put plainly: Radioligand binding assay, D2 receptor. The conditions noted are these: mean ± SD, triplicate at 7 concentrations, Cheng-Prusoff; read-out: Affinity Ki D2R. On the procedure:
as §1, §2

Where “and” joins values, the source holds several entries; their conditions need not be identical. Equal entries are not always repeated. A value given as a limit tells only on which side of the number the result lay.

T3 sequence (P34969 1-432 limits assumed): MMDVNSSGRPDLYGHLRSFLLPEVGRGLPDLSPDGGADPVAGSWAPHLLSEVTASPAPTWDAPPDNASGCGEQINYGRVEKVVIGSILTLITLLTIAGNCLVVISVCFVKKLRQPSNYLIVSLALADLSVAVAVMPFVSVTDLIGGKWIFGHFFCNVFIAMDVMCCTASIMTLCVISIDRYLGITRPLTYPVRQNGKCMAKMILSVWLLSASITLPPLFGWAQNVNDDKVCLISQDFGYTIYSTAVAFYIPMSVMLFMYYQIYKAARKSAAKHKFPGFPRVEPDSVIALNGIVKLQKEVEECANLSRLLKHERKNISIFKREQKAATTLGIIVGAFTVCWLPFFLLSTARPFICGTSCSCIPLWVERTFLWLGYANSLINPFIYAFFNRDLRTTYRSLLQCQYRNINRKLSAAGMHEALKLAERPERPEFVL
T5 sequence (P14416 whole entry): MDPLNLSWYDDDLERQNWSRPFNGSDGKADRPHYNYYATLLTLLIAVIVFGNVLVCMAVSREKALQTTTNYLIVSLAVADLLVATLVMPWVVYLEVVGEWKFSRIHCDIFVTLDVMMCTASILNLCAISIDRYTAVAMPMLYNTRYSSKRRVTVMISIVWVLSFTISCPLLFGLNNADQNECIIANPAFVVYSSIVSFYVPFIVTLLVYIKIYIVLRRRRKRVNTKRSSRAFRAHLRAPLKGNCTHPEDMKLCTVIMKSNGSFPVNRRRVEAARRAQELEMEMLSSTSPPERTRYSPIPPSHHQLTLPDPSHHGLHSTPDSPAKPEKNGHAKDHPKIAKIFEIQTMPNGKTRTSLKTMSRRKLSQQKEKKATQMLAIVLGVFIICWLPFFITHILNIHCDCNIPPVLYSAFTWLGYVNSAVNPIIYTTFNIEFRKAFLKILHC

For the compound `Cl.N#Cc1ccc2[nH]cc(CCNc3nc(N)nc(NCCc4ccccc4)n3)c2c1` [Compound 1, 3-(2-((4-Amino-6-(Phenethylamino)-1,3,5-Triazin-2-yl)Amino)Ethyl)-1H-Indole-5-Carbonitrile Hydrochloride], the melting point (as a rule, the temperature, or range, at which the solid turns liquid) lay in the range of 95 to 98 °C. Further, in data set [1], the inhibition constant Ki (in general, the equilibrium dissociation constant of an inhibitor or competing ligand from its target) was 13 µM. Further, in data set [2], the inhibitory constant (Ki) is 0.927 ± 0.927 µM. In addition, in data set [3], the “activity with respect to 5-HT7R (in words)” value (shortened to “activity”) is given as “activity toward the 5-HT7 receptor being lost” and the inhibition constant Ki came out at 2.88 ± 0.351 µM.
For `Cl.Nc1nc(NCCc2ccccc2)nc(NCCc2c[nH]c3ccc(Br)cc23)n1` [Compound 3, N^2-(2-(5-Bromo-1H-Indol-3-yl)ethyl)-N^4-Phenethyl-1,3,5-Triazine-2,4,6-Triamine Hydrochloride], the melting point was in the range of 82 to 85 °C. In data set [1], the inhibition constant (Ki) came out at 11 µM. The Ki in data set [2] is 0.942 ± 0.112 µM. The Ki in data set [4] came out at 0.234 ± 0.027 µM. In addition, in data set [3], the Ki was 0.126 ± 0.017 µM.
As for `Cl.Nc1nc(NCCc2ccccc2)nc(NCCc2c[nH]c3ccc(Cl)cc23)n1` [Compound 4, N^2-(2-(5-Chloro-1H-Indol-3-yl)ethyl)-N^4-Phenethyl-1,3,5-Triazine-2,4,6-Triamine Hydrochloride], the melting point lay in the range of 106 to 108 °C. In addition, the inhibition constant Ki in data set [1] turned out to be 3.91 ± 0.581 µM. Moreover, the Ki in data set [2] was 0.559 ± 0.041 µM. Besides, the Ki in data set [4] stood at 0.702 ± 0.048 µM. In addition, the inhibitory constant (Ki) in data set [3] was determined as 0.481 ± 0.023 µM. The Ki in data set [5] is 14.5 µM.
`COc1ccc2[nH]cc(CCNc3nc(N)nc(NCCc4ccccc4)n3)c2c1.Cl` [Compound 5, N^2-(2-(5-Methoxy-1H-Indol-3-yl)ethyl)-N^4-Phenethyl-1,3,5-Triazine-2,4,6-Triamine Hydrochloride] registered a melting point of 111 to 115 °C. Besides, the Ki in data set [1] worked out at 3.13 ± 0.758 µM. In addition, in data set [2], the Ki stood at 0.883 ± 0.108 µM. Moreover, in data set [4], the Ki turned out to be 0.509 ± 0.033 µM. In addition, the inhibition constant Ki in data set [3] turned out to be 0.629 ± 0.148 µM.
For `Cc1ccc2[nH]cc(CCNc3nc(N)nc(NCCc4ccccc4)n3)c2c1.Cl` [Compound 6, N^2-(2-(5-Methyl-1H-Indol-3-yl)ethyl)-N^4-Phenethyl-1,3,5-Triazine-2,4,6-Triamine Hydrochloride], the melting point is 118 to 121 °C. The Ki in data set [1] came to 16.6 µM. Also, the Ki in data set [2] amounted to 0.835 ± 0.168 µM. Besides, in data set [4], the inhibition constant (Ki) amounted to 0.714 ± 0.112 µM. Further, in data set [3], the inhibition constant (Ki) was found to be 0.1 ± 0.015 µM.
Consider `Cl.Nc1nc(NCCNc2ccccc2Cl)nc(NCCc2c[nH]c3ccccc23)n1` [Compound 7, N^2-(2-(1H-Indol-3-yl)ethyl)-N^4-(2-((2-Chlorophenyl)amino)ethyl)-1,3,5-Triazine-2,4,6-Triamine Hydrochloride], for which the melting point lay in the range of 105 to 108 °C. Besides, in data set [1], the inhibition constant (Ki) is 30.8 µM. The Ki in data set [2] was determined as 2.12 ± 0.352 µM. Besides, the inhibitory constant (Ki) in data set [4] is 0.892 ± 0.144 µM. In data set [3], the “activity” value is reported as “moderately active” and the Ki is 0.423 ± 0.037 µM. Besides, the Ki in data set [5] amounted to 4.29 ± 1.03 µM.
Turning to `Cl.Nc1nc(NCCNc2cccc(Cl)c2)nc(NCCc2c[nH]c3ccccc23)n1` [Compound 8, N^2-(2-(1H-Indol-3-yl)ethyl)-N^4-(2-((3-Chlorophenyl)amino)ethyl)-1,3,5-Triazine-2,4,6-Triamine Hydrochloride], the melting point lay in the range of 77 to 82 °C. Moreover, the Ki in data set [1] was 15.6 µM. In addition, the inhibitory constant (Ki) in data set [2] is 1.8 ± 0.264 µM. Besides, in data set [4], the Ki is 4.02 ± 0.719 µM. Moreover, in data set [3], the “activity” value is given as “moderately active” and the Ki worked out at 0.131 ± 0.016 µM. The Ki in data set [5] stood at 1.24 ± 0.257 µM.
For the compound `Cl.Nc1nc(NCCNc2ccc(Cl)cc2)nc(NCCc2c[nH]c3ccccc23)n1` [Compound 9, N^2-(2-(1H-Indol-3-yl)ethyl)-N^4-(2-((4-Chlorophenyl)amino)ethyl)-1,3,5-Triazine-2,4,6-Triamine Hydrochloride], the melting point was 97 to 100 °C. The inhibition constant (Ki) in data set [1] is 16.2 µM. For the same compound, the Ki in data set [2] turned out to be 2.7 ± 0.581 µM. Also, the inhibition constant Ki in data set [4] turned out to be 0.641 ± 0.084 µM. Further, in data set [3], the “activity” value was “active” and the inhibition constant (Ki) was 0.019 ± 0.004 µM.
Regarding `Cl.Nc1nc(NCCNc2ccccc2F)nc(NCCc2c[nH]c3ccccc23)n1` [Compound 10, N^2-(2-(1H-Indol-3-yl)ethyl)-N^4-(2-((2-Fluorophenyl)amino)ethyl)-1,3,5-Triazine-2,4,6-Triamine Hydrochloride], the melting point lay within 94 to 97 °C. Also, in data set [1], the inhibitory constant (Ki) came to 36.5 µM. For the same compound, the inhibition constant Ki in data set [2] came to 1.51 ± 0.362 µM. Moreover, the inhibitory constant (Ki) in data set [4] is 0.982 ± 0.115 µM. Further, in data set [3], the “activity” value is on record as “moderately active” and the Ki was 0.132 ± 0.009 µM. Besides, the inhibitory constant (Ki) in data set [5] was 20.4 µM.
Take `COc1cccc(NCCNc2nc(N)nc(NCCc3c[nH]c4ccccc34)n2)c1.Cl` [Compound 14, N^2-(2-(1H-Indol-3-yl)ethyl)-N^4-(2-((3-Methoxyphenyl)amino)ethyl)-1,3,5-Triazine-2,4,6-Triamine Hydrochloride]: the melting point was in the range of 140 to 143 °C. Besides, the inhibition constant (Ki) in data set [2] was determined as 2.45 ± 0.273 µM. The inhibition constant (Ki) in data set [4] was 2.79 ± 0.342 µM. Further, the Ki in data set [3] is 1.04 ± 0.081 µM. Also, the Ki in data set [5] is 36 µM.
`COc1ccc(NCCNc2nc(N)nc(NCCc3c[nH]c4ccccc34)n2)cc1.Cl` [Compound 15, N^2-(2-(1H-Indol-3-yl)ethyl)-N^4-(2-((4-Methoxyphenyl)amino)ethyl)-1,3,5-Triazine-2,4,6-Triamine Hydrochloride]: the melting point was 150 to 153 °C. Further, in data set [3], the Ki was 0.756 ± 0.107 µM.
`Cl.Nc1nc(NCCc2c[nH]c3ccccc23)nc(NCCN2C(=O)c3ccccc3C2=O)n1` [Compound 16, 2-(2-((4-((2-(1H-Indol-3-yl)ethyl)amino)-6-Amino-1,3,5-Triazin-2-yl)amino)ethyl)isoindoline-1,3-Dione Hydrochloride] yielded a melting point of 136 to 138 °C. In addition, the Ki in data set [2] came to 22.4 µM. For the same compound, the Ki in data set [4] came to 8.76 ± 1.76 µM. The Ki in data set [3] is > 1 µM and 21.6 µM. Also, the Ki in data set [5] worked out at 13.3 µM.
As to `Cl.Nc1nc(NCCc2c[nH]c3ccccc23)nc(NCCn2cnc3ccccc32)n1` [Compound 17, N^2-(2-(1H-Benzo[d]imidazol-1-yl)ethyl)-N^4-(2-(1H-Indol-3-yl)ethyl)-1,3,5-Triazine-2,4,6-Triamine Hydrochloride], the melting point lay in the range of 195 to 200 °C. Besides, the Ki in data set [1] came to 63 µM. In data set [2], the Ki was 11.1 µM. For the same compound, the inhibition constant Ki in data set [4] turned out to be 2.63 ± 0.427 µM. Moreover, in data set [3], the Ki came to 0.227 ± 0.037 µM.
Consider `Cc1nc2ccccc2n1CCNc1nc(N)nc(NCCc2c[nH]c3ccccc23)n1.Cl` [Compound 18, N^2-(2-(1H-indol-3-yl)ethyl)-N^4-(2-(2-methyl-1H-benzo[d]imidazol-1-yl)ethyl)-1,3,5-triazine-2,4,6-triamine hydrochloride], for which the melting point lay in the range of 190 to 194 °C. The Ki in data set [2] turned out to be 9.35 ± 0.831 µM. Moreover, the inhibitory constant (Ki) in data set [4] is 1.96 ± 0.269 µM. The inhibitory constant (Ki) in data set [3] was > 1 µM and 4.13 µM.
`Cl.Nc1nc(NCCc2c[nH]c3ccccc23)nc(NCCn2c(C(F)(F)F)nc3ccccc32)n1` [Compound 19, N^2-(2-(1H-Indol-3-yl)ethyl)-N^4-(2-(2-(Trifluoromethyl)-1H-Benzo[d]imidazol-1-yl)ethyl)-1,3,5-Triazine-2,4,6-Triamine Hydrochloride] yielded a melting point of 108 to 110 °C. For the same compound, the inhibition constant (Ki) in data set [1] amounted to 76.2 µM. Besides, the inhibition constant Ki in data set [2] came out at 4.03 ± 0.537 µM. Moreover, the inhibition constant (Ki) in data set [4] was found to be 0.825 ± 0.072 µM. Also, the inhibitory constant (Ki) in data set [3] was > 1 µM and 3.46 µM.
For the compound `Cl.Nc1nc(NCCc2c[nH]c3ccccc23)nc(Nc2ccc(F)cc2)n1` [Compound 21, N^2-(2-(1H-Indol-3-yl)ethyl)-N^4-(4-Fluorophenyl)-1,3,5-Triazine-2,4,6-Triamine Hydrochloride], the melting point was in the range of 232 to 235 °C. Moreover, the Ki in data set [2] was determined as 0.884 ± 0.073 µM. The Ki in data set [4] was found to be 1.77 ± 0.243 µM. Moreover, in data set [3], the “activity” value is “inactive” and the inhibitory constant (Ki) stood at 2.05 ± 0.419 µM. In addition, the inhibitory constant (Ki) in data set [5] turned out to be 7.03 ± 0.439 µM.
`COc1ccc(Nc2nc(N)nc(NCCc3c[nH]c4ccccc34)n2)cc1.Cl` [Compound 22, N^2-(2-(1H-Indol-3-yl)ethyl)-N^4-(4-Methoxyphenyl)-1,3,5-Triazine-2,4,6-Triamine Hydrochloride] came in with a melting point of 194 to 196 °C. Also, in data set [1], the Ki is 79.8 µM. For the same compound, the inhibitory constant (Ki) in data set [2] stood at 3.11 ± 0.438 µM. Moreover, the Ki in data set [4] is 3.74 ± 0.539 µM. For the same compound, in data set [3], the “activity” value was “weakly active” and the inhibition constant (Ki) was 0.727 ± 0.107 µM.
